Test results published in patent publication US5128362A, “1-aminomethyl-1,2,3,4-tetrahydronaphthalenes” (Abbott Laboratories, priority 1990, dated 1992).
Counter-ions that a name gives are not always drawn. Like-named read-outs stand apart in the source and are kept apart here.

Key:
alpha 2 receptor [1] = test: Radioligand binding, [3H]rauwolscine, rat cerebral cortices; details: Ki alpha 1/Ki alpha-2
Method: (§1) The compounds were assessed for alpha-adrenergic receptor subtype selectivity by use of radioligand binding techniques as described previously (DeBernardis et. al. J. Med. Chem. 28, 1398 (1985)).

alpha 2 receptor [2] = biological target: T1, alpha 2 receptor (Rattus norvegicus, UniProt P22909); test: as above; details: read-out: Ki alpha-2
T1 construct: rat cerebral cortices; from tissue; host or cells: rat cerebral cortices
T1 sequence (P22909 1-465): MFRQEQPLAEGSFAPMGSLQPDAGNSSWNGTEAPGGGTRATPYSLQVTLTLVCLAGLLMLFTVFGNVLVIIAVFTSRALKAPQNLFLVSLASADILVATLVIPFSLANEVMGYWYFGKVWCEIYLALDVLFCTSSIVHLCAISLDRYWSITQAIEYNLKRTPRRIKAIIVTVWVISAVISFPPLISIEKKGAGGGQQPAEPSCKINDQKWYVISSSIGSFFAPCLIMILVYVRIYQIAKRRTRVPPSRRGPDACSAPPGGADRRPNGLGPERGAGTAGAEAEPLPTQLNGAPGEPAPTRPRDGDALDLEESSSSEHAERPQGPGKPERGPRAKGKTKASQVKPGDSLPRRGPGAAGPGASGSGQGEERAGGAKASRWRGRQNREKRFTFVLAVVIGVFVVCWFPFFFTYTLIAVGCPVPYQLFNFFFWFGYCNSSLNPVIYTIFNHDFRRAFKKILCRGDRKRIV
Method: as §1

alpha 1 receptor = biological target: T2, alpha 1 receptor (Rattus norvegicus, UniProt P15823); test: Radioligand binding, [3H]-prazosin, rat liver homogenates
T2 construct: rat liver homogenates; from tissue; host or cells: rat liver homogenates
T2 sequence (P15823 1-515): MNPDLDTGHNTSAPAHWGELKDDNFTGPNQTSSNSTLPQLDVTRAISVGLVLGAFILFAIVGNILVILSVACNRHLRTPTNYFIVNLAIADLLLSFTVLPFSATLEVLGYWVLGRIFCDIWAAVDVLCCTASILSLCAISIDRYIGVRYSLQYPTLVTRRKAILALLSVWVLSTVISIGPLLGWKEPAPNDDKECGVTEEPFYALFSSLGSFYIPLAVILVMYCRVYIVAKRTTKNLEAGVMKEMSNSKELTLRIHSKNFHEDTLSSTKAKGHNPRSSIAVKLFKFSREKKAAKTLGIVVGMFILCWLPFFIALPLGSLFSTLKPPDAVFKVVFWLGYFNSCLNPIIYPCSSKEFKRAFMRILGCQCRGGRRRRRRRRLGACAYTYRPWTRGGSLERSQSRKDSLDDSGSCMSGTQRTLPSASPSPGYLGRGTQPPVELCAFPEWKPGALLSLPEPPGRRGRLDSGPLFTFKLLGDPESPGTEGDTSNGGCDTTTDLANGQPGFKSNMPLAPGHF
Method: as §1

norepinephrine uptake = test: Uptake inhibition, tritiated norepinephrine, rat brain synaptosomes; assay type: biochemical, Sprague-Dawley derived rats; details: 0.1 μM tritiated amine, 37° C., 4 minutes, read-out: Biogenic Amine Uptake Inhibition IC50 Norephinephrine
Text: (§2) Sprague-Dawley derived rats of either sex, weighing about 180-250 g, were killed by decapitation. The brains were immediately removed, placed on a glass plate chilled over crushed ice and dissected according to a modification of the method of Glowinski and Iversen (J. Neurochem. 13, 655-669, 1966). First, the rhombencephalon was separated by transverse section and discarded. The remaining tissue was bisected by a midline sagittal cut. The hypothalamus was removed using the anterior and posterior reference points, respectively. The hippocampus was peeled away and discarded and the striata were exposed and removed. Frontal cortical tissue was dissected from remaining brain structures. […]
(§3) Uptake studies were conducted according to the method of Synder and Coyle (J. Pharmacol. Exp. Ther. 165, 78-86, 1969) with minor modifications. Usually a 0.1 ml aliquot of the synaptosomal preparation was incubated in a mixture of 0.75 ml of modified Krebs-Ringer buffer, 0.05 ml of the drug being evaluated for uptake inhibition, and 0.1 ml of a 1 μM tritiated amine (norepinephrine, serotonin or dopamine) solution (final concentration 0.1 μM) for a total volume of 1 ml. […] All samples were cold and dark adapted and counted in a Tri-Carb® (Packard) Model 460 Liquid Scintillation Spectrometer. Corrections were automatically made for quenching by the external standard method and for luminescence. […]

dopamine uptake = test: Uptake inhibition, tritiated dopamine, rat brain synaptosomes; assay type: biochemical, Sprague-Dawley derived rats; details: 0.1 μM tritiated amine, 37° C., 4 minutes, read-out: Biogenic Amine Uptake Inhibition IC50 Dopamine
Text: as §2, §3

serotonin uptake = test: Uptake inhibition, tritiated serotonin, rat brain synaptosomes; assay type: biochemical, Sprague-Dawley derived rats; details: 0.1 μM tritiated amine, 37° C., 4 minutes, read-out: Biogenic Amine Uptake Inhibition IC50 Serotonin
Text: as §2, §3

[3] = rat cerebral cortices, [3H]rauwolscine

SMILES	alpha-2 - Selectivity Ki alpha 1/Ki alpha-2 (alpha 2 receptor [1])	Ki (alpha 2 receptor [2]) [nM]	other results
CN(CCc1cccs1)CC1CCCc2c(Cl)cccc21 (stereo not shown) [Example 129, 1-((N-Methylamino)methyl-N-(2-(2-thieny)ethyl))-5-chloro tetralin hydrochloride]	55	3.6	–
c1ccc(C2CCN(CC3CCCc4c3ccc3c4OCO3)C2)cc1 (stereo not shown) [Example 143a, 5,6-Methylenedioxy-1-(3-phenylpyrrolidino-1-methyl) tetralin methanesulfonate]	43	1.2	–
Fc1ccc2c(c1)CCCC2CN1CCC(c2ccccc2)C1 (stereo not shown) [Example 148, 6-Fluoro-1-(3-phenylpyrrolidino-1-methyl) tetralin methanesulfonate]	19	6.5	–
Nc1ccc2c(c1)CCCC2CN1CCC(c2ccccc2)C1 (stereo not shown) [Example 156, 6-Amino-1-(3-phenylpyrrolidino-1-methyl) tetralin dihydrochloride]	21	6	–
Fc1cc2c(c3c1C(CN1CCC(c4ccccc4)C1)CCC3)OCO2 (stereo not shown) [Example 160, 8-Fluoro-5,6-methylenedioxy-1-(3-phenylpyrrolidino-1-methyl) tetralin hydrochloride]	–	–	IC50 (norepinephrine uptake): 991 nM; IC50 (dopamine uptake): 2930 nM; IC50 (serotonin uptake): 1840 nM

More lines, main results first:

alpha-2 - Selectivity Ki alpha 1/Ki alpha-2 (alpha 2 receptor [1])	Ki (alpha 2 receptor [2]) [nM]	SMILES	other results
95	1	COc1ccc2c(c1)CCCC2CN1CCC(c2ccccc2)C1 (stereo not shown) [Example 121, 6-Methoxy-1-(3-phenylpyrrolidino-1-methyl) tetralin hydrochloride]	–
35	4.9	COc1cccc2c1CCCC2CN1CCC(c2cccs2)C1 (stereo not shown) [Example 146, 5-Methoxy-1-(3-(2-thienyl)pyrrolidino-1-methyl) tetralin hydrochloride]	–
45	–	Fc1ccc2c(c1)CCCC2CN1CCC(c2cccs2)C1 (stereo not shown) [Example 149, 6-Fluoro-1-(3-(2-thienyl)pyrrolidino-1-methyl) tetralin methanesulfonate]	Ki (alpha 2 receptor [2]; [3]): 4.9 nM
71	2.5	COc1ccc2c(c1)CCC2CN1CCC(c2cccs2)C1 (stereo not shown) [Example 151, 5-Methoxy-1-(3-(2-thienyl)pyrrolidino-1-methyl) indane hydrochloride]	–
11	–	COc1ccc2c(c1)CCC2CN1CCC(c2ccccc2)C1 (stereo not shown) [Example 152, 5-Methoxy-1-(3-phenylpyrrolidino-1-methyl) indane hydrochloride]	Ki (alpha 2 receptor [2]; [3]): 4.8 nM; Ki (alpha 1 receptor): 51 nM
7	8.6	COc1ccc2c(c1)CCC2CN1CCC(c2cccc(F)c2)C1 (stereo not shown) [Example 153, 5-Methoxy-1-(3-(m-fluorophenyl)pyrrolidino-1-methyl) indane hydrochloride]	–
85	4.2	CN(CCc1cccc(F)c1)CC1CCCc2c1ccc1c2OCCO1 (stereo not shown) [Example 167, 1-((N-Methylamino)methyl-N-(2-m-fluorophenethyl))-5,6-ethylenedioxy tetralin methanesulfonate]	–
93	1.3	CN(c1ccc2c(c1)CCCC2CN1CCC(c2ccccc2)C1)S(C)(=O)=O (stereo not shown) [Example 193, 6-(N-methylmethylsulfonamido)-1-(3-phenylpyrrolidino-1-methyl)tetralin hydrochloride]	–
